Measurements as given in patent publication US20260297065A1, “AROMATIC SUBSTITUENT-CONTAINING (HETERO) ARYL-IMIDAZOLE COMPOUND, AND PREPARATION METHOD THEREFOR AND USE THEREOF” (OPEN SOURCE THERAPEUTICS, priority 2022, published 2026).

target: T1, soluble epoxide hydrolase (sEH) (Homo sapiens, UniProt P34913); test: in vitro biochemical activity test, sEH enzyme inhibition with EET substrate (LC-MS); conditions: 90 min pre-incubation at room temperature, 60 min reaction
T1 sequence (P34913 1-555): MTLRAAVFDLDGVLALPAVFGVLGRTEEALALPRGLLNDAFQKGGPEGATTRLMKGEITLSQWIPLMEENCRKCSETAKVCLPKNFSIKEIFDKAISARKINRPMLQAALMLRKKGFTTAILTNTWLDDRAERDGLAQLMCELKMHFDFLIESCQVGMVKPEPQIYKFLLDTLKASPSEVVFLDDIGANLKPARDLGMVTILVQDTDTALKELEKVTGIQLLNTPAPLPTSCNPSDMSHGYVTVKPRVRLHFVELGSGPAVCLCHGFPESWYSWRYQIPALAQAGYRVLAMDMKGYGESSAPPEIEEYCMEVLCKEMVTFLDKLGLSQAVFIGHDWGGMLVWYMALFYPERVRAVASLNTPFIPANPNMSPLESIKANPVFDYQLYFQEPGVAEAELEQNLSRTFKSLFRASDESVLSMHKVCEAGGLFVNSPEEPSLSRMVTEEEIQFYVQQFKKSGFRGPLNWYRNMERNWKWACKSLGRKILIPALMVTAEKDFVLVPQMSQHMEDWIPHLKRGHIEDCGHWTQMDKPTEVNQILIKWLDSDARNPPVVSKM
Method: This example relates to the relationship between the structure and activity of (hetero)aryl imidazole compounds containing an aromatic substituent. Specifically, the biochemical activity of the (hetero)aryl imidazole compounds containing an aromatic substituent described in Example 1 as sEH enzyme inhibitors was evaluated by in vitro activity test experiments.
The experimental procedures for evaluating in vitro biochemical activity were described below.
The substrate used in the evaluation experiment was epoxyeicosatrienoic acid (EET). The solutions used in the evaluation experiments were Bis/Tris HCl 25 mM pH 7.0, Bis/Tris HCl 25 mM pH 7.0 containing 0.1 mg/mL BSA was used as buffer A, and Bis/Tris HCl 25 mM pH 7.0 containing 36.3 mM ZnSO4 was used as buffer B.
The specific steps of the evaluation experiment were as follows. 79 μL of buffer A was added to each well in a black 96-well plate and then 1 μL solution of the aromatic substituent-containing (hetero)aryl imidazole compound was added. Then, 10 μL sEH (1 μM) buffer A solution was added to the wells. After pre-incubation at room temperature for 90 min, 10 μL EET (10 μM) buffer A solution was added to trigger the reaction. After the mixture was allowed to react […] for 60 min, 15 μL buffer B and 180 μL acetonitrile were added to quench the reaction, followed by high-speed centrifugation and filtration for later use.
LC-MS was used to detect the concentration of EET in the samples. The final IC50 was calculated based on three independent experiments using Graphpad Prism software.

Compound	IC50 [nM]
Nc1ncc(-c2cc3[nH]c(-c4cccc(C(F)(F)F)c4)nc3c(F)c2F)c(C(F)F)n1 [Compound 80, 5-(2-(3-(trifluoromethyl)phen-yl)-4,5-difluoro-1H-benzo[d]imidazol-6-yl)-4-(difluoro-methyl)pyrimidine-2-amine]	0.45

target: T1, soluble epoxide hydrolase (sEH); test: PHOME assay activity test, sEH enzyme inhibition (fluorescence); type: biochemical; conditions: PHOME 5 μM, pH 7.0; 10 min pre-incubation; test compound concentration range 20 nM-0.082 nM
Method: This example relates to the relationship between the structure and activity of (hetero)aryl imidazole compounds containing an aromatic substituent. Specifically, the biochemical activity of the (hetero)aryl imidazole compounds containing an aromatic substituent described herein as sEH enzyme inhibitors was evaluated by PHOME assay activity test experiment. The synthesis of the substrates and the test methods required for this test were all based on known literature reports (Analytical Biochemistry 2005, 343, 66-75).
The sEH enzyme activity inhibition experiment was performed in a low binding 96-well plate. The reaction system was 100 μL 25 mM Bis-Tris, pH 7.0, 0.1 mg/mL BSA buffer. The experimental steps of PHOME assay activity test were as follows.
First, a sEH enzyme solution with a final concentration of […] was mixed with compounds of different concentrations (test compound concentration range 20 nM-0.082 nM), and then pre-incubated on a shaker at room temperature for 10 min. The reaction was triggered by adding Phome fluorescent substrate at a final concentration of 5 μM and immediately placed in a Perkin Elmer microplate reader for dynamic monitoring for 1 hour at an excitation wavelength of 330 nm and an emission wavelength of 465 nm, with fluorescence readings at intervals of 1 minute. Graphpad Prism 9.0 software was used to calculate the slope of the fluorescence value increase in each well within 20 minutes, and the slope was used to calibrate the enzyme activity to calculate the inhibition rate of the compound on sEH enzyme activity under different concentration conditions. Finally, Graphpad Prism 9 was used to plot and calculate IC50 values.
The inhibitory activity IC50 values of some compounds against soluble epoxide hydrolase obtained by PHOME assay activity evaluation experiment are shown in Table 4.

Compound	IC50 [nM]
Nc1ncc(-c2cc3[nH]c(-c4cccc(C(F)(F)F)c4)nc3c(F)c2F)c(C(F)F)n1 [Compound 80, 5-(2-(3-(trifluoromethyl)phen-yl)-4,5-difluoro-1H-benzo[d]imidazol-6-yl)-4-(difluoro-methyl)pyrimidine-2-amine]	0.65
COCCNc1ncc(-c2cc3[nH]c(-c4ccc(C(F)(F)F)cc4)nc3c(F)c2F)c(C(F)F)n1 [Compound 88, 5-(2-(4-(trifluoromethyl)phen-yl)-4,5-difluoro-1H-benzo[d]imidazol-6-yl)-4-(difluoro-methyl)-N-(2-methoxyethyl)-pyrimidine-2-amine]	0.65
Nc1ncc(-c2cc3[nH]c(-c4ccc5c(c4)OC(F)(F)O5)nc3c(F)c2F)c(C(F)F)n1 [Compound 89, 5-(2-(2,2-difluorobenzo[d][1,3]dioxol-5-yl)-4,5-difluoro-1H-benzo[d]imidazol-6-yl)-4-(difluoromethyl)pyrimidine-2-amine]	0.35
Nc1ncc(-c2cc3[nH]c(-c4ccc(OC(F)(F)F)c(F)c4)nc3c(F)c2F)c(C(F)F)n1 [Compound 90, 5-difluoro-1H-benzo[d]5-(2-(4-(trifluoromethoxy)-3-fluoro-phenyl)-4,5-difluoro-1H-benzo [d]imidazol-6-yl)-4-(difluoro-methyl)pyrimidine-2-amine]	0.48
Fc1c(-c2cnc(NC3COC3)nc2C(F)F)cc2[nH]c(-c3ccc(C(F)(F)F)cc3)nc2c1F [Compound 91, 5-(2-(4-(trifluoromethyl)phen-yl)-4,5-difluoro-1H-benzo[d]imidazol-6-yl)-4-(difluoro-methyl)-N-(oxetan-3-yl)pyr-imidine-2-amine]	0.61
CN(C)c1nc(N)ncc1-c1cc2[nH]c(-c3ccc(C(F)(F)F)cc3)nc2c(F)c1F [Compound 92, 5-(2-(4-(trifluoromethyl)phen-yl)-4,5-difluoro-1H-benzo[d]imidazol-6-yl)-N4,N4-dimeth-ylpyrimidine-2,4-diamine]	< 0.082
Cc1nc(N2CC(O)C2)ncc1-c1cc2[nH]c(-c3ccc(C(F)(F)F)cc3)nc2c(F)c1F [Compound 93, 1-(4-methyl-5-(2-(4-(trifluoro-methyl)phenyl)-4,5-difluoro-1H-benzo[d]imidazol-6-yl)-pyrimidine-2-yl)azetidin-3-ol]	< 0.082
Nc1ncc(-c2cc3[nH]c(-c4ccc(F)c(OC(F)(F)F)c4)nc3c(F)c2F)c(C(F)F)n1 [Compound 94, 5-(2-(3-(trifluoromethoxy)-4-fluorophenyl)-4,5-difluoro-1H-benzo[d]imidazol-6-yl)-4-(difluoromethyl)pyrimidine-2-amine]	2.54
N#Cc1nc(N)ncc1-c1cc2[nH]c(-c3ccc(C(F)(F)F)cc3)nc2c(F)c1F [Compound 95, 2-amino-5-(2-(4-(trifluoro-methyl)phenyl)-4,5-difluoro-1H-benzo[d]imidazol-6-yl)-pyrimidine-4-carbonitrile]	< 0.082
Cc1nc(N2CC(C(=O)O)C2)ncc1-c1cc2[nH]c(-c3ccc(C(F)(F)F)cc3)nc2c(F)c1F [Compound 96, 1-(4-methyl-5-(2-(4-(trifluoro-methyl)phenyl)-4,5-difluoro-1H-benzo[d]imidazol-6-yl)-pyrimidine-2-yl)azetidine-3-carboxylic acid]	0.14
Cc1nc(CN2CCOCC2)ncc1-c1cc2[nH]c(-c3ccc(C(F)(F)F)cc3)nc2c(F)c1F [Compound 97, 4-((4-methyl-5-(2-(4-(trifluoro-methyl)phenyl)-4,5-difluoro-1H-benzo[d]imidazol-6-yl)-pyrimidine-2-yl)methyl)mor-pholine]	0.092
CC(=O)N1CCN(Cc2ncc(-c3cc4[nH]c(-c5ccc(C(F)(F)F)cc5)nc4c(F)c3F)c(C)n2)CC1 [Compound 98, 1-(4-((4-methyl-5-(2-(4-(trifluoromethyl)phenyl)-4,5-difluoro-1H-benzo[d]imid-azol-6-yl)pyrimidine-2-yl)-methyl)piperazin-1-yl)ethan-1-one]	0.11
Nc1ncc(-c2cc3[nH]c(-c4ccc(C(F)(F)F)cc4)nc3c(F)c2F)c(C(=O)O)n1 [Compound 99, 2-amino-5-(2-(4-(trifluoro-methyl)phenyl)-4,5-difluoro-1H-benzo[d]imidazol-6-yl)-pyrimidine-4-carboxylic acid]	41.6
Cc1nc(N)ncc1-c1cc2[nH]c(-c3ccc4oc(=O)n(C)c4c3)nc2c(F)c1F [Compound 100, 3-methyl-5-(6-(4-methyl-2-aminopyrimid-5-yl)-4,5-difluoro-1H-benzo[d]imid-azol-2-yl)benzo[d]oxazol-2(3H)-one]	10.1
Cc1nc(N)ncc1-c1cc2[nH]c(-c3ccc(C(F)(F)F)cn3)nc2c(F)c1F [Compound 101, 4-methyl-5-(2-(5-(trifluoro-methyl)pyrid-2-yl)-4,5-difluoro-1H-benzo[d]imid-azol-6-yl)pyrimidine-2-amine]	0.35
Cc1nc(N)ncc1-c1nc2[nH]c(-c3ccc(C(F)(F)F)cc3)nc2cc1F [Compound 102, 4-methyl-5-(2-(4-(trifluoromethyl)phenyl)-6-fluoro-3H-imidazo[4,5-b]pyridin-5-yl)-pyrimidine-2-amine]	1.45
Cc1cc(N)nnc1-c1cc2[nH]c(-c3ccc(C(F)(F)F)cc3)nc2c(F)c1F [Compound 103, 5-methyl-6-(2-(4-(trifluoro-methyl)phenyl)-4,5-difluoro-1H-benzo[d]imidazol-6-yl)-pyridazin-3-amine]	0.36
Cc1nc(N2CC(O)C2)ncc1-c1cc2[nH]c(-c3ccc(S(=O)(=O)N(C)C)c(F)c3)nc2c(F)c1F [Compound 104, 4-(6-(4-methyl-2-(3-hydroxy-azetidin-1-yl)pyrimid-5-yl)-4,5-difluoro-1H-benzo[d]imidazol-2-yl)-2-fluoro-N,N-dimethylbenzenesulfonamide]	> 20
Cc1nc(N2CC(C(=O)O)C2)ncc1-c1cc2[nH]c(-c3ccc(S(=O)(=O)N(C)C)c(F)c3)nc2c(F)c1F [Compound 105, 1-(4-methyl-5-(2-(3-fluoro-4-(N,N-dimethylsulfamoyl)phen-yl)-4,5-difluoro-1H-benzo[d]imidazol-6-yl)pyrimidine-2-yl)azetidine-3-carboxylic acid]	> 20
